Measured values reported in patent US20250345350A1, “TREATING PAIN ASSOCIATED WITH CENTRAL SENSITIZATION” (Medicon Pharmaceuticals, Inc., priority 2022, published 2025).
Like-named read-outs stand apart in the source and are kept apart here.

How the values were obtained:
[1] = tested on: STZ-induced central sensitization in Sprague-Dawley rats; experiment: PWT (von Frey), streptozotocin rat model of central sensitization (Example 4); format: in vivo; conditions: 0.7% sulindac hydrogel 3 times a day for 1 week; 5% lidocaine cream once 30 min before; pregabalin 10 mg/kg orally once 1 h before
Procedure: Sprague-Dawley rats were fasted for 4-6 hours before being injected intraperitoneally with 45 mg/kg STZ. This was performed for all experimental groups, except the naive group. In order to prevent hypoglycaemic death, rats received 10% sucrose water as the sole water source for the first 48 hours after injection. In order to ensure only those rats considered diabetic (i.e., having non-fasting plasma glucose levels of >250 mg/dL) were included in the study, blood glucose was measured at 72 hours after the STZ injection.
Four weeks after STZ injection, the rats were randomised into treatment groups. This delay between STZ injection and treatment allows the establishment of chronic pain (allodynia) associated with central sensitization. […] 5% lidocaine cream (positive control) was applied only once to both hind paws of the rats 30 minutes before measurement of PWT.
The rats were split into 8 study groups, with those in the experimental groups (1-4) having an average body weight of about 225 g, and those in the control groups (5-8) having an average body weight of about 335 g, as follows: • 1. Group 1: naive rats (n=5) • 2. Group 2: STZ only (n=6) • 3. Group 3: STZ plus vehicle (n=6) • 4. […] Group 5: STZ plus oral vehicle (n=8) • 6. Group 6: STZ plus 0.7% sulindac hydrogel (n=7) • 7. Group 7: STZ plus 5% lidocaine cream (n=8) • 8.

[2] = tested on: PHN induced by HSV-1 KOS strain virus in BALB/c mice; experiment: PWT (von Frey), HSV-1 mouse model of PHN, topical (Example 20); format: in vivo; conditions: Post-inoculation and treatment, sulindac 5% gel on both hind paws three times a day for three days
Procedure: PHN was induced in mice by infecting them with the HSV-1 KOS strain virus and following established protocols (Ou et al, Front Immunol, 14, 1026269, 2023; Takasaki et al, Anesthesiology, 96(5), 1168-74, 2002).
; Reckitt Benckiser). Three days later, HSV-1 (10^6 PFUs in 20 μl PBS) was inoculated on the shin of the right hind paw (5×5 mm) after scarification with sandpaper. The virus was applied directly to the scarified area. The contralateral hind paw was without inoculation. Mock infection was performed using the same virus inactivated by heating at 60° C. for 1 h.
. Group 1: sham inoculated (n=5-7) • 2.
In a second experiment, the effect of the parent compound, sulindac, was tested in the same mouse model. Five days post-inoculation, sulindac (as a 5% gel), or vehicle control were administered topically onto both hind paws of mice three times a day for three days.
. Group 1: vehicle control (n=5-7) • 2. Group 2: sulindac 5% (n=5-7)

[3] = Pharmacokinetics and biodistribution after topical PS 8% ointment to hind paws (Example 25); format: in vivo, mouse; conditions: all tissues except the sciatic nerve (higher) and DRG (equal)
Procedure: At 0.5, 1, 3, 5, 12, 18, and 24 h, mice (n=4-5 mice/time point) were euthanized with CO2 inhalation. Blood was drawn immediately after death. Tissues, including paw skin, paw muscle, leg muscle, the sciatic nerve and lumbar DRG bilaterally were dissected quickly, immediately frozen in liquid nitrogen and stored at −80° C. until analyzed.

[4] = PS and metabolites in proximal and distal half of the sciatic nerve (Example 25); format: in vivo, mouse; conditions: sciatic nerve halves, 30 min after last dose
Procedure: In a separate experiment we studied 8 mice with paclitaxel-induced PN treated with PS 8% ointment 3×/d for 2 wks. Mice were euthanized as above 30 minutes after the last dose of PS. From these mice we harvested both sciatic nerves dividing each into proximal and distal halves, and combined the corresponding halves of every two animals for assay of drug levels.

[5] = Pharmacokinetics and biodistribution after 3% PS gel on outer surface of eyelid (Example 26); format: in vivo, rabbit; conditions: rabbits, 3% PS gel on outer surface of upper eyelids; for AUC(0-t): read-out: AUC0-24 h; for concentration at 0.5 h / concentration at 1 h / concentration at 2 h / concentration at 4 h / concentration at 8 h / concentration at 24 h: topical, read-out: Amount in tissue, Mean ± SEM
Procedure: The pharmacokinetics and biodistribution of 3% PS gel applied to the outer surface of both upper eyelids was studies in male New Zealand White rabbits.
Eyelid and tissues of the globe were dissected and frozen quickly in liquid nitrogen until the levels of PS and its metabolites were determined by HPLC as described Xie et al. (Br J Pharmacol (2012);165:2152-66).

[6] = tested on: paclitaxel-induced central sensitization in C57/BL/6J mice; conditions: day 14; PS hydrogel 5% or 0.7% sulindac 3 times a day; 5% lidocaine cream once 30 min before; pregabalin 10 mg/kg orally once 1 h before
Procedure: Regarding the treatment with lidocaine: 5% lidocaine cream (a positive control) was applied once to both hind paws of the mice 30 minutes before measurement of PWT.
Briefly, for mechanical allodynia, pain threshold responses were measured using the well-established method of von Frey filaments in line with that performed in the earlier Examples. The PWT test was performed on day-8 (before the first dose of paclitaxel), the day of starting treatment (day 0, at which central sensitization was fully established) and day 14 (treatment continued until day 15). The mechanical threshold, expressed as g, indicates the force of the von Frey filament to which the animal reacted.

[7] = tested on: NTG-induced chronic migraine in mice; experiment: PWT (von Frey), NTG-induced chronic migraine model, oral (Example 16)
Procedure: In particular, mice receive sublingual NTG 0.4 mg in the form of a finely crushed 0.4 mg NTG tablet (Greenstone Brand) every two days, receiving a total of five doses. For control mice, an NTG placebo (Practi-Nitroglycerin Sublingual 0.4 mg Simulated Medication tablet) was administered in the same way.
Group 1: placebo NTG (i.e, no NTG treatment, n=8) • 2. Group 2: NTG (n=8) • 3. Group 3: NTG+vehicle (n=8) • 4. […] Group 5: NTG+sulindac (n=8)
Mechanical allodynia was determined using von Frey filaments in line with that performed in the earlier Examples. The PWT test was performed prior to NTG (or placebo NTG) administration to determine baseline values, as indicated. […] The mechanical threshold, expressed as g, indicates the force of the von Frey filament to which the animal reacted.

[8] = tested on: NTG-induced migraine in C57BL/6J mice; experiment: PWT (von Frey), NTG-induced migraine mouse model, topical (Example 13)
Procedure: Specifically, instead of the intraperitoneal injection of NTG, a finely crushed 0.4 mg NTG tablet (Greenstone Brand) was administered sublingually. As a control, a Practi-Nitroglycerin Sublingual 0.4 mg Simulated Medication tablet was used.
For determining mechanical allodynia, pain threshold responses were measured using the well-established method of von Frey filaments in line with that performed in the earlier Examples.
The PWT test, assessing mechanical allodynia, was performed 30 minutes after treatment. The mechanical threshold, expressed as g, indicates the force of the von Frey filament to which the animal reacted.

[9] = male, New Zealand White, rabbit, topical or ocular, conjunctiva
[10] = male, New Zealand White, rabbit, topical or ocular, cornea
[11] = male, New Zealand White, rabbit, topical or ocular, eyelid
[12] = male, New Zealand White, rabbit, AH (aqueous humor)
[13] = male, New Zealand White, rabbit, conjunctiva
[14] = male, New Zealand White, rabbit, cornea
[15] = male, New Zealand White, rabbit, eyelid
[16] = male, New Zealand White, rabbit, vitreous

## CC1=C(CC(=O)O)c2cc(F)ccc2/C1=C\c1ccc([S+](C)[O-])cc1 (centres unmarked) [sulindac]
[1]
  PWT, gm Mean ± SEM: 23.2 ± 2.6 gm
[2]
  PWT, g Mean ± SEM: 0.56 ± 0.06 g
[2]; listed as Sulindac
  PWT, g Mean ± SEM: 0.56 ± 0.06 g
[3]
  sulindac levels relative to those of PS: around 25%
[4]
  Fold difference (distal vs proximal): 8.5 fold
[5]; eyelid
  Tmax: 1 h
[5]; [9]
  Cmax: 800 nM
  AUC(0-t): 2.5 ± 0.3 µM·h
[5]; male, New Zealand White, rabbit, topical or ocular, conjunctiva, read-out: TMax
  Tmax: 8 h
[5]; [10]
  Cmax: 600 nM
  half-life: 7.4 h
  AUC(0-t): 2.4 ± 0.5 µM·h
[5]; [11]
  Cmax: 3600 nM
  half-life: 1.1 h
  AUC(0-t): 5.5 ± 0.8 µM·h
[5]; [12]
  concentration at 0.5 h: 0 nM
  concentration at 1 h: 0 nM
  concentration at 2 h: 0 nM
  concentration at 4 h: 0 nM
  concentration at 8 h: 0 nM
  concentration at 24 h: 0 nM
[5]; [13]
  concentration at 0.5 h: 100 ± 100 nM
  concentration at 1 h: 200 ± 100 nM
  concentration at 2 h: 0 nM
  concentration at 4 h: 100 ± 100 nM
  concentration at 8 h: 800 ± 500 nM
  concentration at 24 h: 0 nM
[5]; [14]
  concentration at 0.5 h: 400 ± 200 nM
  concentration at 1 h: 600 ± 100 nM
  concentration at 2 h: 0 nM
  concentration at 4 h: 300 ± 100 nM
  concentration at 8 h: 200 ± 200 nM
  concentration at 24 h: 0 nM
[5]; [15]
  concentration at 0.5 h: 1000 ± 100 nM
  concentration at 1 h: 3600 ± 1200 nM
  concentration at 2 h: 0 nM
  concentration at 4 h: 500 ± 200 nM
  concentration at 8 h: 0 nM
  concentration at 24 h: 0 nM
[5]; [16]
  concentration at 0.5 h: 0 nM
  concentration at 1 h: 0 nM
  concentration at 2 h: 0 nM
  concentration at 4 h: 0 nM
  concentration at 8 h: 0 nM
  concentration at 24 h: 0 nM
[6]
  PWT, g Mean ± SEM: 0.62 ± 0.05 g
[7]; Baseline, prior to NTG administration
  PWT, g Mean ± SEM: 1.80 ± 0.12 g
[7]; Day 11, orally once a day for 11 days concurrent with NTG, PS 50 mg/kg, sulindac 33 mg/kg
  PWT, g Mean ± SEM: 0.43 ± 0.03 g
[8]; 30 min after treatment, PS 8% gel or sulindac 5.3% (in DMSO) on both hind paws 30 min after NTG
  PWT Post-treatment Mean ± SEM: 0.55 ± 0.02 g
[8]; baseline of the group, before NTG and treatment
  PWT Baseline Mean ± SEM: 1.43 ± 0.15 g
